Laboratory results: PMC11189555, “Aryl amino acetamides prevent Plasmodium falciparum ring development via targeting the lipid-transfer protein PfSTART1” (Nature Communications, 2024)
pEC50: −log10 of the molar value. Where two headings read alike, the source gives them in different places.

Tests used:
[1] = tested on: 3D7 P. falciparum parasites; assay: Growth inhibition assay (72 h, LDH activity); type: cell-based, Plasmodium falciparum; settings: for pEC50: Plasmodium falciparum
Method: (§1) Parasite growth assays with inhibitory compounds were performed as per[11] and are fully described in the Supplementary Information. […]
(§2) Growth inhibition assays. Synchronised ring-stage parasites (0.3-0.6% parasitemia, 2% haematocrit) were grown for 72 h in a serial-dilution of the compound under […]
(§3) and compound 4. Note that M-833 was first purchased from MolPort (MolPort -002-267-916) then made in-house at WEHI: the differences observed in EC50s across experiments are attributed to the different batches of M -833. For some experiments, 0, 0.25 or 2.5 mM of glucosamine (GlcN) was also added. Experiments were set up in technical duplicates or triplicates. Following a freeze -thaw cycle, lactate dehydrogenase (LDH) activity was assessed as an indicator of parasite growt h 5. 30 μL of parasite culture was incubated for 30 min in the dark with 75 μL Malstat mixture (0.1 M Tris pH 9.0, 20 g/L lactic acid, pH 7.5, 0.2% Triton-X100, 0.5 g/L acetylpyridine adenine dinucleotide (APAD, Sigma), 200 μg/mL nitroblue tetrazolium (NBT; Sigma), 1 μg/mL phenozine ethosulfate (PES; Sigma)). Absorbance was then measured at 650 nm, transformed using the formula below, plotted against the logarithm of the concentrations, and a non-linear regression (log(inhibitor) vs. response, variable slope) was calculated using GraphPad Prism to assess the half-inhibitory […]
(§4) Growth inhibition % = (1 − average(sample)− average(uRBC)) ∗ 100 […]
(§5) The DMSO samples were also used to assess growth of parasite in the presence of 0.25 and 2.5 mM GlcN (normalised by DMSO in 0 mM GlcN). […]

[2] = tested on: PopE-F10 M-833 resistant clone (PfSTART1 N330K); assay: Growth inhibition assay (72 h, LDH activity); type: cell-based, Plasmodium falciparum; parameters: sample/DMSO: scale not given here
Method: The drug was then removed, and parasites were allowed to recover. Another cycle of drug treatment (3 μM M-833) was then resumed. The resistant lines were cloned out by limiting dilution (diluting the culture into a 96-well plate to achieve an average of ~0.3 parasites per well), prior to growth inhibition assays and genomic DNA (gDNA) extraction (DNeasy Blood and Tissue kit (Qiagen)[18].
as §1, §2, §3, §4, §5

SMILES: CN(C(=O)C(C)(C)Nc1ccc(Cl)c(S(=O)(=O)N2CCOCC2)c1)c1ccc(F)c(Cl)c1 [compound 4]
- Growth inhibition % (LDH, relative to DMSO) ([1]; 3D7, 0.00152416 uM, biological replicate 3 (2023-02-07)): -17.5745
- Growth inhibition % (LDH, relative to DMSO) ([1]; 3D7, 0.00304832 uM, biological replicate 1 (2021-10-25)): -18.3864
- Growth inhibition % (LDH, relative to DMSO) ([1]; 3D7, 0.00457247 uM, biological replicate 3 (2023-02-07)): -17.9271
- Growth inhibition % (LDH, relative to DMSO) ([1]; 3D7, 0.00914495 uM, biological replicate 1 (2021-10-25)): -26.0151
- Growth inhibition % (LDH, relative to DMSO) ([1]; 3D7, 0.0137174 uM, biological replicate 3 (2023-02-07)): -25.0392
- Growth inhibition % (LDH, relative to DMSO) ([1]; 3D7, 0.0274348 uM, biological replicate 1 (2021-10-25)): -36.8606
- Growth inhibition % (LDH, relative to DMSO) ([1]; 3D7, 0.0411523 uM, biological replicate 3 (2023-02-07)): -21.1207
- Growth inhibition % (LDH, relative to DMSO) ([1]; 3D7, 0.078125 uM, biological replicate 2 (2023-02-07)): -4.3247
- Growth inhibition % (LDH, relative to DMSO) ([1]; 3D7, 0.0823045 uM, biological replicate 1 (2021-10-25)): -42.8019
- Growth inhibition % (LDH, relative to DMSO) ([1]; 3D7, 0.123457 uM, biological replicate 3 (2023-02-07)): -34.2281
- Growth inhibition % (LDH, relative to DMSO) ([1]; 3D7, 0.15625 uM, biological replicate 2 (2023-02-07)): -4.463
- Growth inhibition % (LDH, relative to DMSO) ([1]; 3D7, 0.246914 uM, biological replicate 1 (2021-10-25)): -45.3858
- Growth inhibition % (LDH, relative to DMSO) ([1]; 3D7, 0.3125 uM, biological replicate 2 (2023-02-07)): -3.423
- Growth inhibition % (LDH, relative to DMSO) ([1]; 3D7, 0.37037 uM, biological replicate 3 (2023-02-07)): -26.6654
- Growth inhibition % (LDH, relative to DMSO) ([1]; 3D7, 0.625 uM, biological replicate 2 (2023-02-07)): -4.556
- Growth inhibition % (LDH, relative to DMSO) ([1]; 3D7, 0.740741 uM, biological replicate 1 (2021-10-25)): -43.9445
- Growth inhibition % (LDH, relative to DMSO) ([1]; 3D7, 1.11111 uM, biological replicate 3 (2023-02-07)): -37.6176
- Growth inhibition % (LDH, relative to DMSO) ([1]; 3D7, 1.25 uM, biological replicate 2 (2023-02-07)): 10.8002
- Growth inhibition % (LDH, relative to DMSO) ([1]; 3D7, 2.22222 uM, biological replicate 1 (2021-10-25)): -10.0721
- Growth inhibition % (LDH, relative to DMSO) ([1]; 3D7, 2.5 uM, biological replicate 2 (2023-02-07)): 18.1545
- Growth inhibition % (LDH, relative to DMSO) ([1]; 3D7, 3.33333 uM, biological replicate 3 (2023-02-07)): -31.3871
- Growth inhibition % (LDH, relative to DMSO) ([1]; 3D7, 5 uM, biological replicate 2 (2023-02-07)): 37.6735
- Growth inhibition % (LDH, relative to DMSO) ([1]; 3D7, 6.66667 uM, biological replicate 1 (2021-10-25)): 35.3489
- Growth inhibition % (LDH, relative to DMSO) ([1]; 3D7, 10 uM, biological replicate 2 (2023-02-07)): 60.2451
- Growth inhibition % (LDH, relative to DMSO) ([1]; 3D7, 10 uM, biological replicate 3 (2023-02-07)): 26.4107
- Growth inhibition % (LDH, relative to DMSO) ([1]; 3D7, 20 uM, biological replicate 1 (2021-10-25)): 75.5669
- Growth inhibition % (LDH, relative to DMSO) ([1]; 3D7, 20 uM, biological replicate 2 (2023-02-07)): 87.1878
- pEC50 ([1]; 3D7, 72 h, Supplementary Table 1, 3D7, 72 h, read-out: EC50): 5.00
- pEC50 ([1]; 3D7, Fig 4A, 3D7 parasites, read-out: Pf 3D7 EC50 (SD)): < 5.00
- pEC50 ([2]; Plasmodium falciparum, 72 h, Supplementary Table 1, PopE-F10 (N330K)): 4.86
- resistance of the line compared with 3D7 ([2]; PopE-F10 (N330K), Fig 4B): No change in EC50
- sample/DMSO ([2]; PopE-F10, 0.00152416 uM, biological replicate 3): -10.997
- sample/DMSO ([2]; PopE-F10, 0.00304832 uM, biological replicate 1): -14.4828
- sample/DMSO ([2]; PopE-F10, 0.00457247 uM, biological replicate 3): -14.249
- sample/DMSO ([2]; PopE-F10, 0.00914495 uM, biological replicate 1): -25.5172
- sample/DMSO ([2]; PopE-F10, 0.0137174 uM, biological replicate 3): -22.0582
- sample/DMSO ([2]; PopE-F10, 0.0274348 uM, biological replicate 1): -44.0394
- sample/DMSO ([2]; PopE-F10, 0.0411523 uM, biological replicate 3): -25.9307
- sample/DMSO ([2]; PopE-F10, 0.078125 uM, biological replicate 2): -21.3563
- sample/DMSO ([2]; PopE-F10, 0.0823045 uM, biological replicate 1): -49.1626
- sample/DMSO ([2]; PopE-F10, 0.123457 uM, biological replicate 3): -32.7771
- sample/DMSO ([2]; PopE-F10, 0.15625 uM, biological replicate 2): -19.0708
- sample/DMSO ([2]; PopE-F10, 0.246914 uM, biological replicate 1): -58.8177
- sample/DMSO ([2]; PopE-F10, 0.3125 uM, biological replicate 2): -21.7123
- sample/DMSO ([2]; PopE-F10, 0.37037 uM, biological replicate 3): -39.4309
- sample/DMSO ([2]; PopE-F10, 0.625 uM, biological replicate 2): -9.966
- sample/DMSO ([2]; PopE-F10, 0.740741 uM, biological replicate 1): -40.7882
- sample/DMSO ([2]; PopE-F10, 1.11111 uM, biological replicate 3): -43.6671
- sample/DMSO ([2]; PopE-F10, 1.25 uM, biological replicate 2): -1.293
- sample/DMSO ([2]; PopE-F10, 2.22222 uM, biological replicate 1): -40.4926
- sample/DMSO ([2]; PopE-F10, 2.5 uM, biological replicate 2): 7.269
- sample/DMSO ([2]; PopE-F10, 3.33333 uM, biological replicate 3): -37.5053
- sample/DMSO ([2]; PopE-F10, 5 uM, biological replicate 2): 28.3814
- sample/DMSO ([2]; PopE-F10, 6.66667 uM, biological replicate 1): -11.4286
- sample/DMSO ([2]; PopE-F10, 10 uM, biological replicate 2): 46.5155
- sample/DMSO ([2]; PopE-F10, 10 uM, biological replicate 3): 5.884
- sample/DMSO ([2]; PopE-F10, 20 uM, biological replicate 1): 42.9557
- sample/DMSO ([2]; PopE-F10, 20 uM, biological replicate 2): 83.0461
- Fold change compared to 3D7 ([2]; Supplementary Table 1, EC50 on PopE-F10 vs 3D7): 1.4 fold
